Data set [1] is described as follows: Heckel test (compaction simulator, yield pressure, strain rate sensitivity). The following applies: for Compact observations / Ejection Force / Peak Force of Upper punch / Yield Pressure: individual runs; for Yield pressure Slow (0.1 mm/s) / Yield pressure fast (300 mm/s): summary mean of runs; for Strain rate sensitivity: yield pressure at 300 mm/s compared to 0.1 mm/s.

For data set [2] the following is noted: 25° C.; for DVS weight gain at high relative humidity: 90% RH and above; for DVS weight above reference weight after sorption/desorption cycle: end of second desorption stage (0-95% RH-0%). The protocol: Dynamic Vapour Sorption (DVS) Analysis DVS analyses are performed using an SMS DVS Intrinsic analyser (serial number PF 140088) in open aluminium pans at 25° C. with a nitrogen purge gas at 100 ml/min. The stability criterion was a weight change lower than 0.002% on a 5 minute time frame (with a minimum of 10 min and a maximum of 100 min).

For data set [3] the following is noted: helium pycnometry; for True Density: individual runs; for True Density MEAN: mean of runs. How it is done:
Determination of True Density by Helium Pychnometry.
Equipment used: Micromeritics AccuPyc II 1340
Run fill pressure 19.5 psig
Equilibration rate 0.02 psig
Percentage full scale 0.05%
Testing was performed in duplicate.

The procedure of data set [4]:
Onset, Peak Temperatures and Enthalpies Thermogravimetric Analysis (TGA) Thermogravimetric analyses were performed using a Pyris 1 TGA analyser (serial number 537N7052501) in sealed aluminium pans, punctured before analysis, under nitrogen flush at 20 mL/min.

For data set [5] the following is noted: six months at 40° C. and 75% humidity. How it is done:
TETA.4HC obtained in accordance with Reference Example 3 was compressed to form a tablet. The tablet was aged for six months at 40° C. and 75% humidity.

Setting [6] is: fast speed 300 mm/s, listed as Ref Example 3.
Setting [7] is: slow speed 0.1 mm/s, listed as Ref Example 3.

Where “and” joins values, the source holds several entries; their conditions need not be identical. Equal entries are not always repeated. Where two headings read alike, the source gives them in different places.

Regarding `Cl.Cl.Cl.Cl.NCCNCCNCCN` [Example 2, triethylenetetramine tetrachloride], in data set [1] (fast speed 300 mm/s), the Compact strength was 9.83 Kiloponds and 11.58 Kiloponds and 8.88 Kiloponds; the Compact observations entry is recorded as “Good shiny”; the “Ejection Force” value is 0.441 kN and 0.456 kN and 0.417 kN; the “Peak Force of Upper punch” value is 14.566 kN and 14.542 kN and 14.717 kN. In data set [1] (fast speed 300 mm/s), the “Yield Pressure” value was 129.865 Mpa and 129.108 Mpa and 129.861 Mpa. In addition, in data set [1] (slow speed 0.1 mm/s), the Compact strength was 12.07 Kiloponds and 7.52 Kiloponds and 9.64 Kiloponds and 9.19 Kiloponds; the Compact observations result is “Good shiny”; the “Ejection Force” value is 0.044 kN and 0.053 kN and 0.080 kN and 0.060 kN; the “Peak Force of Upper punch” value is 20.211 kN and 24.088 kN and 24.175 kN and 23.906 kN. The “Yield Pressure” value in data set [1] (slow speed 0.1 mm/s) is 106.465 Mpa and 117.516 Mpa and 118.116 Mpa and 115.227 Mpa. Also, in data set [1], the “Yield pressure Slow (0.1 mm/s)” value is listed as 114.33 Mpa (±5.39), the “Yield pressure fast (300 mm/s)” value is 129.61 Mpa (±0.44) and the Strain rate sensitivity is reported as 13.4%. In data set [2], the “DVS weight gain at high relative humidity” value is on record as not below 55.8% and the “DVS weight above reference weight after sorption/desorption cycle” value is on record as “almost reaches its reference weight”. For the same compound, in data set [2] (listed as Form B), the “DVS weight gain at high relative humidity” value is 50-59%. Further, in data set [3], the “True Density” value is 1.3693 g/mL and 1.3973 g/mL and 1.3678 g/mL; the “True Density MEAN” value was 1.3686 g/mL. Besides, the “TGA weight loss (total)” value in data set [4] (25-300° C., 10° C./min) stood at 10.24%. The “TGA weight loss starting temperature” value in data set [4] (25-300° C., 10° C./min, nitrogen) was 225 °C. In data set [4] (between 225.0-289.5° C.), this compound gave a TGA weight loss of 2.64%. The TGA weight loss in data set [4] (between 289.5-299.0° C.) turned out to be 7.60%.
On to `Cl.Cl.Cl.Cl.NCCNCCNCCN` [Reference Example 3, triethylenetetramine tetrachloride, reference compound], for which the Compact strength in data set [1] (fast speed 300 mm/s) is listed as 4-6 Kiloponds. Also, in data set [1] (setting [6]), the Compact observations result is on record as “Good but blistering”; the “Ejection Force” value is 0.421 kN and 0.327 kN and 0.381 kN; the “Peak Force of Upper punch” value was 14.644 kN and 14.752 kN and 14.617 kN; the “Yield Pressure” value is 127.197 Mpa and 125.309 Mpa and 129.748 Mpa. Besides, the Compact strength in data set [1] (setting [6]) was 6.59 Kiloponds and 4.27 Kiloponds and 4.75 Kiloponds. The Compact strength in data set [1] (slow speed 0.1 mm/s) is on record as 6-11 Kiloponds. Also, in data set [1] (setting [7]), the Compact observations result is reported as “Good”; the “Ejection Force” value was 0.039 kN and −0.007 kN and −0.020 kN; the “Peak Force of Upper punch” value was 20.830 kN and 18.543 kN and 19.570 kN; the “Yield Pressure” value was 101.529 Mpa and 95.501 Mpa and 97.474 Mpa. Also, in data set [1] (setting [7]), the Compact strength was 6.41 Kiloponds and 7.45 Kiloponds and 11.17 Kiloponds. Further, in data set [1] (listed as Ref Example 3), the “Yield pressure Slow (0.1 mm/s)” value is reported as 98.17 Mpa, the “Yield pressure fast (300 mm/s)” value is 127.42 Mpa and the Strain rate sensitivity is 29.8%. Besides, the “Tablet appearance after aging” value in data set [5] is “discoloured patches”. Further, in data set [2] (listed as Ref Example 3), the “DVS weight gain at high relative humidity” value is not below 60.8% and the “DVS weight above reference weight after sorption/desorption cycle” value came to 14.4%. The “DVS weight above reference weight after sorption/desorption cycle” value in data set [2] (listed as Form A) was 14-15%. For the same compound, the “DVS weight above reference weight, minimum value reached” value in data set [2] (second desorption stage) came out at 7.9%. In data set [3] (listed as Ref Example 3), the “True Density” value was 1.3523 g/mL and 1.3431 g/mL; the “True Density MEAN” value worked out at 1.3477 g/mL.

The values above are taken from patent publication US11117855B2, “Crystalline form of triethylenetetramine tetrahydrochloride and its pharmaceutical use” (Orphalan S.A., priority 2018, dated 2021).
